We go through 6 compounds from ChEMBL document CHEMBL1127207, “Synthesis of ingenol analogs wth affinity for protein kinase C” (Bioorg Med Chem Lett, 1993).

In assay [1] the target is T1, Protein kinase C alpha type (Homo sapiens, UniProt P17252). Nature of the assay: Displacement of [3H]PDBU from protein kinase C-alpha (Inactive). Background: In a radioligand displacement assay an active substance lowers the binding of a labelled ligand.
Assay [2] concerns the target T1, Protein kinase C alpha type. The assay is described as follows: Displacement of [3H]PDBU from protein kinase C-alpha.
Assay [3] concerns Mus musculus. Nature of the assay: Tested in vivo for inflammatory potency in the mouse ear. It counts as functional.
For assay [4], the target named is T1, Protein kinase C alpha type. The assay is described as follows: Displacement of [3H]-PDBU from protein kinase C-alpha.

As to `CC1=C[C@@]23CCCC[C@@H](C=C(CO)[C@@H](O)[C@]2(O)[C@H]1O)C3=O`, in assay [1], the Ki – broadly, a dissociation constant, usually derived from enzyme kinetics or from competition with a known ligand – is on record as “Not Active”.

The compound `O=C(O[C@H]1CCC23CCCC[C@H](C=C(CO)C[C@H]12)C3=O)c1ccccc1` registered a Ki in assay [2] of 165 nM.

Regarding `CC1=CC23C(=O)[C@@H](C=C(COC(=O)c4ccccc4)[C@@H](O)[C@]2(O)[C@H]1OC(=O)c1ccccc1)[C@H]1[C@@H](C[C@H]3C)C1(C)C`, the Potency in assay [3] turned out to be 0.054 nM.

For the compound `CC1=CC23C(=O)[C@@H](C=C(CO)[C@@H](O)[C@]2(O)[C@H]1OC(=O)c1ccccc1)[C@H]1[C@@H](C[C@H]3C)C1(C)C`, the Ki in assay [2] was determined as 0.14 nM.

For the compound `CC1=CC23C(=O)[C@@H](C=C(CO)[C@@H](O)[C@]2(O)[C@H]1O)[C@H]1[C@@H](C[C@H]3C)C1(C)C`, the Ki in assay [4] was determined as 240 nM.

With `CCCCC(=O)O[C@@H]1[C@@H](C)[C@@]2(O)[C@@H](C=C(CO)C[C@]3(O)C(=O)C(C)=C[C@@H]23)[C@@H]2C(C)(C)[C@]12OC(=O)CCCC`, in assay [4], the Ki turned out to be 0.54 nM. Further, the Potency in assay [3] amounted to 0.067 nM.
